What was measured:
[1] = Secondary structure contents of peptides (DichroWeb analysis); type: physicochemical; details: various solvents, reducing or non-reducing conditions
Procedure: FIG. 20: Secondary structure contents of BPCH7, BPLH7, and BPKH in various solvents (reducing or non-reducing conditions). Analysis was performed using DichroWeb (CONTIN, dataset 4).

rice callus cells = test: CLSM observation of intracellular uptake and distribution of Citrine after vacuum/pressure infiltration; type: cell-based, Oryza sativa, cv. Nipponbare; details: for distribution of Citrine in callus cell: 5-day callus cell, 72-hours incubation, FM 4-64 stain, 3D images and optical sections
Procedure: Mature dry seeds of Oryza sativa, cv. Nipponbare (O. sativa) were surface-sterilized with 70% ethanol (v/v) for 1 min, followed by 30 min in 50% (v/v) commercial bleach with rotation at 20 rpm. Seeds were then washed 8-10 times with sterile distilled water and dried on autoclaved Kimwipes (3 mm) for 5 min. For callus induction, sixteen seeds were inoculated petri plate on callus induction medium (N6D) and incubated at 30° C. with continuous light in a plant bio-incubator (TOMY CLE-303 cultivation chamber Tokyo, Japan). N6D was prepared using basal 30 g/L […], 0.3 g/L casamino acid, 2.8 g/L L-proline, 2 mg/L 2,4-dichlorophenoxyacetic acid (2,4-D), 4.0 g/L CHO (N6) basal salt mix, gelled with 4 g/L phytagel and pH adjusted to 5.8 before autoclaving. After 5-day cultivation, the callus was cut into approximately four equal parts. This callus was used as the 5-day callus in this work. On the other hand, after 21-day cultivation, the self-shedding callus was collected and used as the 21-day callus. For the callus regeneration test, the callus was cut to small pieces in different sizes, then transferred onto a regeneration medium and incubated at 30° C. with continuous light for 7 days. […] The regeneration medium was prepared based on using 4 g/L MS powder with vitamin, supplied with 30 g/L sorbitol, 30 g/L sucrose, 4 g/L casamino acid, 2 mg/L 2,4-D and 2 mg/L 1-Naphthaleneacetic acid (NAA), gelled with 4 g/L phytagel and pH was adjusted to 5.8 before autoclaving. The chemicals used in this research are purchased from Sigma (Sigma-Aldrich, MO, USA) and Wako (Wako, Pure Chemical, Tokyo, Japan).
(§1) 10 mg rice callus (5-day or 21-day) was immersed in 100 μL of fresh prepared complex solutions in a screw cap tube. Subsequently depressurized the solution at −0.08 MPa for 1 min and compressed at +0.08 MPa for 1 min. After this treatment, the callus was transferred onto the N6D medium, and incubated at 30° C. in the dark until use.
Confocal laser scanning microscopy (CLSM, ZeissLSM 700, Carl Zeiss, Oberkochen, Germany) was used to evaluate the intracellular uptake of CPP-FP-Citrine every 24 hours. Before the observation by CLSM, the callus on N6D was transferred into a 1.5 mL Eppendorf tube and washed thoroughly with Milli-q water contains 0.1% tween 20 for five times to remove the Citrine on cell surface. Thereafter, the callus was cut into tiny pieces and mounted on glass slides, then covered with coverslips. CPP-FP-Citrine was detected by setting the excitation at 488 nm and emission in a range of 505-600 nm. For distinguish plasma membrane region and cytoplasm region, the callus was additionally incubated with FM4-64 (20 µM, 20 min at RT) for cell membrane stain, and detected by setting the excitation at 405 nm and emission at 560-700. Furthermore, quantification of the intracellular Citrine by western blot immunoassay. After 72-hour post-infiltration, the protein was extracted from rice callus. The rice callus was frozen with liquid nitrogen, and then grinding in a mortar into powder. 50 μl of 10 mM Tris-HCL buffer (pH 7.4) containing 10 μL Halt protease inhibitor cocktail (Thermo Scientific, MA, USA) was added to 0.1 g callus powder, mixed well and incubated on ice for 1 hour. After centrifuge at […], 4° C. for 20 min, the supernatant was collected and used as the cell extraction. 10 μL of the cell extraction was subjected to a 4-20% sodium dodecyl sulfate polyacrylamide electrophoresis gels (SDS-PAGE, Bio-Rad, California, USA). Proteins were then transferred onto a PVDF membranes (Bio-Rad, California, USA) using a semi-dry transfer cell (Bio-Rad, California, USA) at 10 V for 1 hour. The immunodetection of Citrine was performed with a rabbit polyclonal antibody (GFP antibody NB600-308, Novus Biologicals, Co, USA, dilution to 1:2000). IgG goat anti-rabbit antibody conjugated with horse radish peroxidase was used as a secondary antibody (goat anti-rabbit IgG H&L HRP ab6789, Abcam, Cambridge, UK, dilution to 1:20000). […]

5-day callus cell = test: Western blot quantification of Citrine extracted from rice callus; type: cell-based, Oryza sativa, cv. Nipponbare; details: 72-hour post-infiltration, with vacuum and pressure treatment, area intensity compared with positive control
Procedure: as §1
Confocal laser scanning microscopy (CLSM, ZeissLSM 700, Carl Zeiss, Oberkochen, Germany) was used to evaluate the intracellular uptake of CPP-FP-Citrine every 24 hours. Before the observation by CLSM, the callus on N6D was transferred into a 1.5 mL Eppendorf tube and washed thoroughly with Milli-q water contains 0.1% tween 20 for five times to remove the Citrine on cell surface. […] CPP-FP-Citrine was detected by setting the excitation at 488 nm and emission in a range of 505-600 nm. For distinguish plasma membrane region and cytoplasm region, the callus was additionally incubated with FM4-64 (20 µM, 20 min at RT) for cell membrane stain, and detected by setting the excitation at 405 nm and emission at 560-700. Furthermore, quantification of the intracellular Citrine by western blot immunoassay. […]
We next quantified the Citrine from the cell extraction by western blot. […] As controls, the samples with infiltration of Milli-q water and Citrine only without vacuum and pressure treatment were also analyzed (FIG. 7a). […]

rice cells = test: Delivery of DNA into rice cells by linear versus cyclic peptide; type: cell-based
Procedure: BP2 is a cyclic peptide due to its disulphide bond between the two cysteins. This structure improve binding to proteins, peptides and DNA and improves cell survival (reduced cell toxicity) and regeneration. These advantages of the cyclic structure were analysed by studying a linear, non-cyclic, version of BP2 with regards to its potential to delivery.

rice callus = test: Delivery of dsRed plasmid DNA into rice callus and dsRed expression; type: cell-based; details: dsRed plasmid DNA (SEQ ID NO: 1) combined with peptide, after 4 days
Procedure: CPP (BP100 KH9) and dsRed plasmid DNA (Seq ID NO: 1) or Cy3 labelled PNA (peptide nucleic acid) (1:10 molar ratio) were mixed together and incubated for 30 minutes at 4° C. After incubation the volume was made up to 100 μl with water.
Callus from 5-7 days old rice seeds were used for the experiments. To 10 mg of callus, CPP/DNA or CPP/PNA mixture was added and vacuum infiltrated for 15 mins, washed with distilled water and plated on N6 medium.

## KKLFKKILKYLHHCRGHTVHSHHHCIR (BP2 amino acid sequence, synthetic) [BP100CH7]
[1]; listed as BP2
  secondary structure: higher helix and strand order
Rice callus cells
  distribution of Citrine in callus cell: located in cell membrane and the cytoplasm regions of the cells
Rice callus cells; 5-day callus cells, P/C ratio of 100
  Citrine fluorescence inside of the cells observed, time after infiltration: 72 h
5-day callus cell
  Citrine delivered: 0.043 ng/mg callus

## KKLFKKILKYLHHCRGHTVHSHHHCIR [LH7, linear, non-cyclic version of BP2, reference compound]
[1]
  secondary structure: higher degree of unordered structure
Rice cells
  activity in delivery DNA into rice cells: significantly lower activity

## KKLFKKILKYLKHKHKHKHKHKHKHKHKH (BP1 amino acid sequence, synthetic) [BP100 (KH)9]
[1]
  secondary structure: higher helix and strand order
Rice callus cells
  distribution of Citrine in callus cell: located in cell membrane and the cytoplasm regions of the cells
Rice callus cells; 5-day callus cells, P/C ratio of 1
  Citrine fluorescence inside of the cells observed, time after infiltration: 72 h
Rice callus cells; 5-day callus cells, P/C ratio of 10
  Citrine fluorescence inside of the cells first observed, time after infiltration: 48 h
Rice callus cells; 21-day rice callus, P/C ratio of 10
  Citrine florescence observed, time after infiltration: 48 h
Rice callus
  dsRed expression (red fluorescence): visible red fluorescence
5-day callus cell
  Citrine delivered: 0.042 ng/mg callus
